Test results published in patent publication US5965787A, “HLA-DRBI peptides with specific binding affinity for HLA-DQ molecules: prevention and treatment of rheumatoid arthritis” (Mayo Foundation for Medical Education and Research, priority 1995, dated 1999).

Test system: lymph node cells from B10.RQB3-DRB1*1502 positive and negative littermates (H-2A^q)
Assay: T cell proliferation assay, lymph node cells of immunized B10.RQB3 mice
Type: cell-based, mouse
Conditions: for T cell response of DRB1*1502 transgene positive animals compared with negative littermates / B10.RQB3 controls: mice immunized with 200 μg HII 250-270 in CFA, in vitro HII 250-270 4, 20, 100 μg/ml, PPD 20, LPS 40, Con A 10 μg/ml, FIG. 2

Row | Substance | T cell response of DRB1*1502 transgene positive animals compared with negative littermates / B10.RQB3 controls | mean cpm of lymph node cells challenged in vitro (positive control of the DRB1 peptide proliferation assay)
1 | lipopolysaccharide [LPS] | similar | –
2 | Concanavalin A [Con A] | similar | > 100,000 cpm
